# Measured values taken from patent publication US20220015363A1, “SMALL MOLECULE PATHOGEN DISPERSAL AGENT” (The Trustees of Princeton University, priority 2020, published 2022).
# Experiments:
# [1] = tested on: P. aeruginosa; assay: orientation of surface attachment (vertical vs horizontal) of cells; format: cell-based; details: 10 mM MHQ; ntotal=1331; PBS control 76%
# Method: Upon treatment with phosphate buffered saline (PBS), 76% (ntotal=1347) of the cells attached to the surface vertically. In contrast, upon treatment with, e.g., 10 mM MHQ, only 5% (ntotal=1331) of the cells attached to the surface vertically. A similar behavior is found between MHQ-treated WT cells and mutants lacking Type IV pilin subunits (PilA), as only 7% (ntotal=1995) of ΔpilA cells were attached vertically even in PBS treatment.
# [2] = tested on: T4P activity; assay: T4P dynamics imaging by cysteine-labeling of PilA; format: cell-based, P. aeruginosa; details: 2 mM MHQ for 5 min; n=493; PBS control 77%
# Method: To directly assay the effect of a dispersing compound on T4P activity, the recently developed cysteine-labeling approach can be used to fluorescently label T4P and image their dynamics. This approach uses a cysteine point mutation in an unstructured loop of the PilA pilin subunit to label the pili through maleimide-based click chemistry. In one experiment, the pili of untreated cells were labeled and then imaged T4P dynamics after a brief (5 min) exposure to MHQ or PBS control. Following a 5 min mock treatment with PBS, T4P were seen extending and retracting from 77% of the cells (n=473). […] Since the T4P was labeled before MHQ treatment and the treatment was brief, this effect cannot be attributed to effects of MHQ on TFP expression or labeling. Similar results can be seen with other disclosed dispersing compounds.
# [3] = tested on: type IV pili (T4P) twitching motility; assay: twitching assay (spread under agar, crystal violet staining); format: cell-based, P. aeruginosa
# From the text: Since T4P is required for twitching motility, the dispersing compound's effect on a pathogen can be seen in a twitching assay. In this assay, cells are placed underneath agar and allowed to spread from their starting spot along the bottom surface of a Petri dish. The extent of this spread is visualized with crystal violet staining and quantified. In the presence of agar made with LB, WT cells traveled 11±0.7 mm (mean±SD) from the starting spot. […] The effect of MHQ on twitching depended on T4P, as ΔpilA cells that lack T4P traveled similar distances away from the starting spot in the absence of MHQ (1.9±0.1 mm) or in the presence of MHQ (2.3±0.3 mm).
structure (smiles),measurement,setting,value
"Cc1cc(O)c2ccccc2n1 [MHQ, 2-methyl-4-hydroxyquinoline]",cells attached to the surface vertically,[1],5%
same,cells exhibiting any T4P extension or retraction events,[2],4%
same,distance traveled from the starting spot,"[3]; WT cells, agar made with LB and 2 mM MHQ, mean±SD, LB alone 11±0.7 mm",7±0.5 mm
same,distance traveled from the starting spot,"[3]; ΔpilA cells that lack T4P, in the presence of MHQ, without MHQ 1.9±0.1 mm",2.3±0.3 mm
